Data on one compound can be found in patent US12486246B2, “Replication protein A (RPA)-DNA interaction inhibitors” (THE TRUSTEES OF INDIANA UNIVERSITY, priority 2019, dated 2025).

≈ marks a conversion by molar mass, not a printed value.

As usually defined, the solubility is the dissolved amount per volume that the medium holds. Read a high solubility as a readily soluble substance. The term IC50 denotes the concentration needed to halve the response being measured.

The nature of data set [1]: Aqueous solubility as a function of pH. Format: physicochemical. The conditions noted are these: thermodynamic from solid. On the procedure: Aqueous solubility was determined by suspending compound in un-buffered water with stirring. Insoluble material was removed by sedimentation or filtration and soluble compound quantified by absorbance spectroscopy and LC/MS. pH dependence was determined by suspending compound in 10 mM citrate buffer at pH 4.0 or 10 mM phosphate […] as described above in the description.
The morpholine ring is commonly introduced into solvent exposed regions as a privileged solubilizing group to improve solubility or pharmacokinetic properties including metabolic stability of a prospective drug scaffold which is exemplified by many FDA approved drugs. Modifications on Ring A had less of an effect than the morpholino modifications at the alkyl carboxylic acid side chain. To determine the effect of pH on solubility, we prepared solution at 1 mM in citrate buffer at pH 4, phosphate buffer at pH 7 and carbonate buffer at pH 9.5.

Data set [2] has as its system A2780 epithelial ovarian cancer (EOC) cells. Nature of the data set: Cell survival, single agent. The class given is cell-based. On the procedure: (§1) Cell survival was determined by CCK-8 viability assay and/or clonogenic survival assay in 96 well plates or 24 well plates, respectively and combination index (CI) analysis of drug-drug interactions determined by Chou-Talalay analysis as we have previously described. • 1) CCK-8 metabolic assay: Cells were plated (2500 cells/well) in 96-well plate and allowed to grow for at least 18 hours in at 37° C. in the presence of 5% CO2 before treatment with inhibitor for 48 hours. CCK-8 solution (Dojindo) was added to 10% of the total media volume and after 1-4 hours of incubation absorbance at 450 nm was determined using BioTek® Synergy™ H1 hybrid multi-mode microplate reader • 2) Clonogenic survival assay: Cells were plated in a 24 well (20,000 cells/well) plate, incubated for at least 18 hours and then treated with inhibitor. […] Images of the stained colonies were captured with a Fuji LAS-3000 CCD system then counted using OpenCFU software. Viability is determined as a percent of vehicle controls and plotted versus drug concentration. • 3) Assessment of synergy via combination index (CI): In the combination index studies, cells (H460 or SKGT4) were treated with RPA inhibitor and Pt/etoposide/bleomycin/taxol/DDR inhibitor alone as well as the combination of both—the inhibitor and the DNA damaging chemotherapeutic agent/DDR inhibitor. […]

Data set [3] has as its system GCT27 testicular cancer cells. The data set is described as follows: Cell survival, single agent. The class given is cell-based. On the procedure: as §1
Data set [4] concerns the target T1, full length heterotrimeric human RPA (Homo sapiens, UniProt P27694).
T1 construct: Full length, heterotrimeric human RPA (fl-RPA) and DBD-A/B constructs were expressed and purified; made in house
Nature of the data set: Electrophoretic mobility shift assay (EMSA), binding of full length human RPA to ssDNA. The conditions noted are these: full length human RPA binding to DNA, mean ± SD of minimum triplicate experiments. The gist of the method:
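Full-length human RPA (50 nM) preincubated 30 min with compound (DMSO ≤5%), then 2.5 nM 5′-32P 34-base ssDNA added for 5 min at room temperature in 20 mM HEPES pH 7.8, 50 mM NaCl. Bound/unbound resolved by 6% native PAGE, phosphorimager quantified; IC50 by non-linear regression.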
A general note: Mobility shift assays separate free from complexed probe on a gel.

The test system of data set [5] is H460 NSCLC cells. Nature of the data set: Cell survival, CCK-8 metabolic assay, single agent. The class given is cell-based. On the procedure: as §1
Background: Tetrazolium dyes change colour on reduction, which living cells bring about.

Data set [6] has as its system H460 cells. Nature of the data set: Caspase 3/7 activation (CellEvent Caspase-3/7 Green). Format: cell-based. The conditions noted are these: 24 hours treatment. On the procedure: Apoptosis induction was determined by activation of Caspase 3 and 7 using the CellEvent™ Caspase-3/7 Green Detection Reagent (Invitrogen). H460 cells were plated at […] in black 96 well plates with clear bottoms (Costar) and incubated for 24 hours prior to treatments. Cells were treated with the indicated concentration of compound 43 or cisplatin for 24 hours. The vehicle (DMSO) concentration was held constant at 1% for compound 43 treatments. For caspase 3/7 detection, media was removed and replaced with PBS containing 5% FBS and 2 μM CellEvent™ Caspase-3/7 Green Detection Reagent. Cells were incubated at 37° C./5% CO2 for 1 hour and fluorescence intensity was measured in a BioTek Synergy H1 plate reader (excitation/emission 485/528). Images were captured with an Evos FL2 Auto microscope (Invitrogen) using a 10× objective.

T1 sequence (P27694 whole entry): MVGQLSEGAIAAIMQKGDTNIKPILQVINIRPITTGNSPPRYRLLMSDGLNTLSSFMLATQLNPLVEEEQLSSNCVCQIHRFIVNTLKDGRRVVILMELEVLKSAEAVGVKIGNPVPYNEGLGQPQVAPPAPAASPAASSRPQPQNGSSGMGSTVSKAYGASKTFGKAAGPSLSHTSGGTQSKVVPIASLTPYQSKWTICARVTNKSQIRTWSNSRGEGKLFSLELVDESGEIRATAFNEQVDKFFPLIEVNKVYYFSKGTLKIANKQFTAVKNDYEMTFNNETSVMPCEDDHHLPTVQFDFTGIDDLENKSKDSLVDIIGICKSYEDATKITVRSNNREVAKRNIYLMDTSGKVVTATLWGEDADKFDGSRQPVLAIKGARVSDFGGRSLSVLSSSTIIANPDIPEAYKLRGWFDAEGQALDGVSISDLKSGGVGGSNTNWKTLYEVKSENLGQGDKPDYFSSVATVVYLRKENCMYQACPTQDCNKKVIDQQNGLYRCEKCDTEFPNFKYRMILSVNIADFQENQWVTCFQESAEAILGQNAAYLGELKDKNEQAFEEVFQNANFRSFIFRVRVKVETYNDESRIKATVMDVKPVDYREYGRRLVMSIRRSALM
T1 sequence (P15927 whole entry partner): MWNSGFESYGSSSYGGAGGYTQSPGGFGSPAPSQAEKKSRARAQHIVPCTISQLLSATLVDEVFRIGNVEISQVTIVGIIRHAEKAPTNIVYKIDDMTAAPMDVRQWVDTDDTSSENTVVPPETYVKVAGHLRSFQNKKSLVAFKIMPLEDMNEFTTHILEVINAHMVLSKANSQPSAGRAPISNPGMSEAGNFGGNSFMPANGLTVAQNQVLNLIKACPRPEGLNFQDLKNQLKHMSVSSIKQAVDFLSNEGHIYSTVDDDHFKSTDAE
T1 sequence (P35244 whole entry partner): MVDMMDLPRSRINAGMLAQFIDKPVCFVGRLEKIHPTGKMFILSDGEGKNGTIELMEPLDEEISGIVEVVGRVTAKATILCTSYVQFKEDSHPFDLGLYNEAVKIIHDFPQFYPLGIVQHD

Take `CCOc1ccc2cc(C3CC(c4ccc(I)cc4)=NN3C(=O)CCCC(=O)NCCCN3CCOCC3)c(Cl)nc2c1` (centres unmarked) [Compound 43, 5-(5-(2-Chloro-7-ethoxyquinolin-3-yl)-3-(4-iodophenyl)-4,5-dihydro-1H-pyrazol-1-yl)-N-(3-morpholinopropyl)-5-oxopentanamide]: the solubility amounted to 3.62 ± 2.22 µM (≈ 2.6 µg/mL) in data set [1] (aqueous buffer at pH 9.5, pH 9.5, aqueous buffer); 21.4 ± 5.49 µM (≈ 15.4 µg/mL) in data set [1] (aqueous buffer, pH 4, citrate buffer); 5.72 ± 2.79 µM (≈ 4.11 µg/mL) in data set [1] (aqueous buffer, pH 7, phosphate buffer). Also, the “cytotoxicity as compared to H460 NSCLC cells” value in data set [2] and in data set [3] was “increased cytotoxicity” each time. In data set [4], the IC50 worked out at 4.99 ± 0.28 µM. The “cellular anticancer activity compared to compound 9” value in data set [5] is reported as “increase in cellular anticancer activity”. Moreover, the “caspase 3 and 7 activation” value in data set [6] is “potently activates caspase 3 and 7”.
